Patent US7906506B2, “Substituted chiral fused [1,2] imidazo [4,5-c] ring compounds and methods” (3M Innovative Properties Company, priority 2006, dated 2011)

## CC1OC[C@H](C)n2c1nc1c(N)nc3ccccc3c12 (stereo partly drawn) [Example 1, (11S)-8,11-Dimethyl-10,11-dihydro-8H-[1,4]oxazino[4′,3′:1,2]imidazo[4,5-c]quinolin-6-amine]
  melting point: 218 to 223 °C

## CCCC1OC[C@H](C)n2c1nc1c(N)nc3ccccc3c12 (stereo partly drawn) [Example 2, (11S)-1-Methyl-8-propyl-10,11-dihydro-8H-[1,4]oxazino[4′,3′:1,2]imidazo[4,5-c]quinolin-6-amine]
  melting point: 243 to 268 °C
